Reference: patent US20070155746A1, “NOVEL SUBSTITUTED PYRIDINYLOXY AND PYRIMIDINYLOXY AMIDES USEFUL AS INHIBITORS OF PROTEIN KINASES” (KALYPSYS, INC., priority 2005, published 2007)

Columns and labels:
Type in all cases: biochemical
VEGFR2 kinase = biological target: T1, VEGFR2 kinase (Homo sapiens, UniProt P35968); test: In vitro VEGFR2 kinase assay
T1 construct: purchased Invitrogen Inc PV3660
Procedure: (§1) In Vitro VEGFR2 and PDGFRP Kinase Assays
(§2) 2.5 μl of ADP Quest assay buffer (DiscoverX Inc., cat. #90-0071) containing 20 ng VEGFR2 kinase (Invitrogen Inc, cat. #PV3660) or 25 ng PDGFRβ kinase (Invitrogen Inc., cat. #P3082) is dispensed to wells of a 1536 multi-well, black solid plate. 60 nl of 100× concentration of test compound in DMSO is dispensed to the well by passive pin transfer and incubated for 10 minutes at room temperature (approx. 22° C.). 2.5 μl of ADP Quest assay buffer containing 0.25 μg of poly Glu:Tyr (4:1) substrate peptide (Upstate Inc., cat. #12-440) and 60 μM ATP is then dispensed and the kinase reaction allowed to incubate at 30° C. for 2 hours. The assay plates are sealed and maintained in a humidified environment. After the 2 hour incubation, 2 μl of ADP Quest assay reagent A, followed by 2 μl of assay reagent B, is added. After an additional 30 minute incubation at room temperature, fluorescence intensity is measured on a Molecular Devices Aquest multi-mode plate reader or other suitable plate reader (fluorescence excitation filter: 530/25 [Peak(nm)/FWHM passband(nm)]; dichroic beamsplitter: 561 nm longpass; fluorescence emission filter: 580/10 [Peak(nm)/FWHM passband(nm)]. The assay measures the conversion of a non-fluoresecent molecule to fluorescent resorufin, which correlates with kinase activity. Negative control activity is measured with DMSO lacking any test compound. The positive control is [N-(3-trifluoromethyl-4-chlorophenyl)-N′-(4-(2-methylcarbamoyl-pyridin-4-yl)oxyphenyl)urea], aka Bay 43-9006. Efficacy is measured as a percentage of positive control activity.

[1] = biological target: T2, human B-Raf protein kinase (Homo sapiens, UniProt P15056); test: In vitro B-Raf/Mek1 composite kinase assay
T2 construct: GST (N); purchased Upstate Inc. 14-530 (B-Raf); 14-420 (Mek1)
Procedure: In Vitro B-Raf/Mek1 Composite Kinase Assay
2.5 μl of B-Raf kinase buffer (20 mM MOPS [pH 7.2], 25 mM sodium glycerophosphate, 2 mM EGTA [pH 8.0], 1 mM sodium orthovanadate, 1 mM dithiothreitol, 10 mM MgCl2, 0.03% Brij-35, 0.3 mg/ml bovine serum albumin) containing lng of recombinant, N-terminal GST-tagged human B-Raf protein kinase (Δ1-415, Upstate Inc., cat. #14-530) is dispensed to wells of a 1536 multi-well white solid plate. 60 nl of 100× concentration of test compound in DMSO is dispensed to the well by passive pin transfer and incubated for 15 minutes at room temperature (approx. 22° C.). […] The assay plates are sealed and maintained in a humidified environment. After 2 hours, 2.5 μl of PKLight protein kinase assay reagent (Cambrex, cat. #LT07-501) is dispensed. After an additional 5 minute incubation at room temperature, luminescence activity is measured on a Molecular Devices Analyst multi-mode plate reader or other suitable plate reader. Kinase inhibition results in less ATP depletion, and therefore increased luminescence signal. Negative control activity is measured with DMSO lacking any test compound. The positive control is [N-(3-trifluoromethyl-4-chlorophenyl)-N′-(4-(2-methylcarbamoyl-pyridin-4-yl)oxyphenyl)urea], aka Bay 43-9006. Efficacy is measured as a percentage of positive control activity.

PDGFRβ kinase = biological target: T3, PDGFRβ kinase (Homo sapiens, UniProt P09619); test: In vitro PDGFRβ kinase assay
T3 construct: purchased Invitrogen Inc. P3082
Procedure: as §1, §2

T2 sequence (P15056 416-766): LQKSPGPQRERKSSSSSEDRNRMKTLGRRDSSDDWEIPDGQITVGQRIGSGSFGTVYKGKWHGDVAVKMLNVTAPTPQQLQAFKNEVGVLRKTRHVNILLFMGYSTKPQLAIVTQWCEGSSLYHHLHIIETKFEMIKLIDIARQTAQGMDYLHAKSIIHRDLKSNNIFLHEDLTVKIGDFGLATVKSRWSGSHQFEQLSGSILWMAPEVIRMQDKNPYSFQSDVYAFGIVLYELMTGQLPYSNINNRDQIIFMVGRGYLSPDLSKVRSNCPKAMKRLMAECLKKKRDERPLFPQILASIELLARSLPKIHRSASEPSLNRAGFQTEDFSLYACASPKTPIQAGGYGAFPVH
T1 sequence (P35968 20-1356): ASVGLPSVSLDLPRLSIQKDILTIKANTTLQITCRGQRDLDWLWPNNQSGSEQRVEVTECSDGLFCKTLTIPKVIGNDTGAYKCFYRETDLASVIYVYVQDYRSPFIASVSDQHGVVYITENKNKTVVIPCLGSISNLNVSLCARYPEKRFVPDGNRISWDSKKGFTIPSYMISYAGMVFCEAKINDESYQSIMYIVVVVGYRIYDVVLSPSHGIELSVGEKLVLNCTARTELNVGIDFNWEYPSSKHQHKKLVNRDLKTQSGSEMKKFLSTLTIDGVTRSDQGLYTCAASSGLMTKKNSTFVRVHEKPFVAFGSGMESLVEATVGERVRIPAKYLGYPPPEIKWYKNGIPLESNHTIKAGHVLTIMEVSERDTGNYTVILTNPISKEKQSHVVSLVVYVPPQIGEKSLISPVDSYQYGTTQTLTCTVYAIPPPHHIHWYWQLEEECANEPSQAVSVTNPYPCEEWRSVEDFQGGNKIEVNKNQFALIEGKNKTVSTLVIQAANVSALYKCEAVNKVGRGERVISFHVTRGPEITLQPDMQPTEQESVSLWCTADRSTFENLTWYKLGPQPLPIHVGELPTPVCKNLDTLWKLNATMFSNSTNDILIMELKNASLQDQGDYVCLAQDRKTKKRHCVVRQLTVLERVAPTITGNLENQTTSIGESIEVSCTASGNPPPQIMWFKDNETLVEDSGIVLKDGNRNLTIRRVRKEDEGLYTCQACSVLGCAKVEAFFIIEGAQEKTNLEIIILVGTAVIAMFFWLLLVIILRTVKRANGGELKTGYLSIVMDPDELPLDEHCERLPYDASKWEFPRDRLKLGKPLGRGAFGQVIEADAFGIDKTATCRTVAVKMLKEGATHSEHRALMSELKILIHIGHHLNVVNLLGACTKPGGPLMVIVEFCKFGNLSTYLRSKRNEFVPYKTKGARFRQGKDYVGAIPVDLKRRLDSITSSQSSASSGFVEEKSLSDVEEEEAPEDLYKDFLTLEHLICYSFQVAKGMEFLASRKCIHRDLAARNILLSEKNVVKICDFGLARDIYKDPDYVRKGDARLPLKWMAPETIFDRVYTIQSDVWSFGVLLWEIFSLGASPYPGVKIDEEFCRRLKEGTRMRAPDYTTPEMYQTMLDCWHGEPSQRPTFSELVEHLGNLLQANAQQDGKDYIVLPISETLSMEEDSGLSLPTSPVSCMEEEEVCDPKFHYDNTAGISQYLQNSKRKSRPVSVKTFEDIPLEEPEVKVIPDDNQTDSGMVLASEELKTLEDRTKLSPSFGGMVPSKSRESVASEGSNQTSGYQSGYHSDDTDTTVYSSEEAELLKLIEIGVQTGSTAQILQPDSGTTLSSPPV
T3 sequence (P09619 33-1106): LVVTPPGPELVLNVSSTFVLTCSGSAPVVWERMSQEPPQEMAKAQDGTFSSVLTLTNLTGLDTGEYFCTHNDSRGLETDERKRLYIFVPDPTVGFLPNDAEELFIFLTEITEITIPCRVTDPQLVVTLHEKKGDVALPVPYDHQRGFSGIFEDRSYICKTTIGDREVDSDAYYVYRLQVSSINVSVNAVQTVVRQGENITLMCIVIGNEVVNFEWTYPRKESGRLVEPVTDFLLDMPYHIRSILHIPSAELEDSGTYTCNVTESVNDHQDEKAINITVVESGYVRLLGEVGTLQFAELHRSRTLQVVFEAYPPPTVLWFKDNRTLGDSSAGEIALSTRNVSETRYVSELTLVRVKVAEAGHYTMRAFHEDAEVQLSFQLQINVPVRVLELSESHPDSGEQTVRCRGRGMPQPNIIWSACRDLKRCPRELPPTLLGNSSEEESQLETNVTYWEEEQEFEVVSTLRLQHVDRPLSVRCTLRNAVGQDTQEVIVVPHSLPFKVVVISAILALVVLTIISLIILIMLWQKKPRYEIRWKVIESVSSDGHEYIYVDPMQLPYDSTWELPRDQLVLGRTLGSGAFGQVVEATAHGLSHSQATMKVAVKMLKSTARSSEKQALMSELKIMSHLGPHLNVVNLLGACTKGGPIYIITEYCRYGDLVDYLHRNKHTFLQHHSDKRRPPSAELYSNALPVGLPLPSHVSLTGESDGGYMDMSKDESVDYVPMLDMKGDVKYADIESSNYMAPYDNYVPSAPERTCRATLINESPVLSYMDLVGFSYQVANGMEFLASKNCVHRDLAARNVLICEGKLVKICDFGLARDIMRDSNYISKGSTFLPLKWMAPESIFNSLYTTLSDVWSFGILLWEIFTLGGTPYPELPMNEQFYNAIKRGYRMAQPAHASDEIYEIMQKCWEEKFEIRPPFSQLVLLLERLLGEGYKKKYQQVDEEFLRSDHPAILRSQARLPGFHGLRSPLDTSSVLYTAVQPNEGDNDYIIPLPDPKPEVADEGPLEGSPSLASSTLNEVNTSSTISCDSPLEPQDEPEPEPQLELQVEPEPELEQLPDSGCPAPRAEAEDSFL

Structure (SMILES)	IC50 (VEGFR2 kinase)	IC50 [1]	IC50 (PDGFRβ kinase)
Cn1cc(-c2cc(Oc3cccc(NC(=O)c4cccc(C(F)(F)F)c4)c3)ccn2)cn1 [Example 44, N-(3-(2-(1-Methyl-1H-pyrazol-4-yl)pyridin-4-yloxy)phenyl)-3-(trifluoromethyl)benzamide]	> 10 µM	> 10 µM	> 10 µM
O=C(Nc1cccc(Oc2ccnc(-c3nnco3)c2)c1)c1cccc(N2CCCCC2)c1 [Example 11, N-[3-(2-[1,3,4]Oxadiazol-2-yl-pyridin-4-yloxy)-phenyl]-3-piperidin-1-yl-benzamide]	≤ 10 µM	> 10 µM	> 10 µM
Cn1cc(-c2cc(Oc3cccc(NC(=O)c4cccc5ccccc45)c3)ccn2)cn1 [Example 52, N-(3-(2-(1-Methyl-1H-pyrazol-4-yl)pyridin-4-yloxy)phenyl)-1-naphthamide]	> 10 µM	> 10 µM	> 10 µM
Cn1cc(-c2cc(Oc3cccc(NC(=O)c4ccc(OC(F)(F)F)cc4)c3)ncn2)cn1 [Example 23, N-(3-(6-(1-Methyl-1H-pyrazol-4-yl)pyrimidin-4-yloxy)phenyl)-4-(trifluoromethoxy)benzamide]	> 10 µM	> 10 µM	> 10 µM
Cn1cc(-c2cc(Oc3cccc(NC(=O)c4ccc5[nH]ccc5c4)c3)ccn2)cn1 [Example 70, N-(3-(2-(1-Methyl-1H-pyrazol-4-yl)pyridin-4-yloxy)phenyl)-1H-indole-5-carboxamide]	≤ 10 µM	≤ 10 µM	> 10 µM
Cn1cc(-c2cc(Oc3cccc(NC(=O)c4cccc(C(=O)c5ccccc5)c4)c3)ccn2)cn1 [Example 50, 3-Benzoyl-N-(3-(2-(1-methyl-1H-pyrazol-4-yl)pyridin-4-yloxy)phenyl)benzamide]	≤ 10 µM	> 10 µM	> 10 µM
O=C(Nc1cccc(Oc2ccnc(-c3nnco3)c2)c1)c1cccc(N2CCOCC2)c1 [Example 12, 3-Morpholin-4-yl-N-[3-(2-[1,3,4]oxadiazol-2-yl-pyridin-4-yloxy)-phenyl]-benzamide]	≤ 10 µM	> 10 µM	≤ 10 µM
Cn1cc(-c2cc(Oc3cccc(NC(=O)c4ccccc4Oc4ccccc4)c3)ccn2)cn1 [Example 54, N-(3-(2-(1-Methyl-1H-pyrazol-4-yl)pyridin-4-yloxy)phenyl)-2-phenoxybenzamide]	> 10 µM	≤ 10 µM	≤ 10 µM
Cn1cc(-c2cc(Oc3cccc(NC(=O)c4cccc5[nH]ccc45)c3)ccn2)cn1 [Example 69, N-(3-(2-(1-Methyl-1H-pyrazol-4-yl)pyridin-4-yloxy)phenyl)-1H-indole-4-carboxamide]	≤ 10 µM	≤ 10 µM	> 10 µM
CCOc1cc(OCC)cc(C(=O)Nc2cccc(Oc3ccnc(C(=O)NC)c3)c2)c1 [Example 14, 4-(3-(3,5-Diethoxybenzamido)phenoxy)-N-methylpicolinamide]	> 10 µM	> 10 µM	> 10 µM
CCOc1ccc(C(=O)Nc2cccc(Oc3ccnc(-c4nnco4)c3)c2)cc1OCC [Example 8, N-(3-(2-(1,3,4-Oxadiazol-2-yl)pyridin-4-yloxy)phenyl)-3,4-diethoxybenzamide]	≤ 10 µM	> 10 µM	> 10 µM
CCOc1cc(OCC)cc(C(=O)Nc2cccc(Oc3cc(-c4cnn(C)c4)ncn3)c2)c1 [Example 24, 3,5-Diethoxy-N-(3-(6-(1-methyl-1H-pyrazol-4-yl)pyrimidin-4-yloxy)phenyl)benzamide]	> 10 µM	> 10 µM	≤ 10 µM
CC(C)Oc1ccc(C(=O)Nc2cccc(Oc3ccnc(-c4cnn(C)c4)c3)c2)cc1 [Example 75, 4-Isopropoxy-N-(3-(2-(1-methyl-1H-pyrazol-4-yl)pyridin-4-yloxy)phenyl)benzamide]	> 10 µM	≤ 10 µM	> 10 µM
Cn1cc(-c2cc(Oc3cccc(NC(=O)c4ccc(Oc5ccccc5)cc4)c3)ccn2)cn1 [Example 56, N-(3-(2-(1-Methyl-1H-pyrazol-4-yl)pyridin-4-yloxy)phenyl)-4-phenoxybenzamide]	≤ 10 µM	≤ 10 µM	> 10 µM
Cn1cc(-c2cc(Oc3cccc(NC(=O)c4ccc5[nH]nnc5c4)c3)ccn2)cn1 [Example 65, N-(3-(2-(1-Methyl-1H-pyrazol-4-yl)pyridin-4-yloxy)phenyl)-1H-benzo[d][1,2,3]triazole-5-carboxamide]	≤ 10 µM	≤ 10 µM	> 10 µM
CNC(=O)c1cc(Oc2cccc(NC(=O)c3ccc(OC)c(OC4CCCC4)c3)c2)ccn1 [Example 15, 4-(3-(3-(Cyclopentyloxy)-4-methoxybenzamido)phenoxy)-N-methylpicolinamide]	≤ 10 µM	> 10 µM	≤ 10 µM
Cn1cc(-c2cc(Oc3cccc(NC(=O)c4ccc5occc5c4)c3)ccn2)cn1 [Example 66, N-(3-(2-(1-Methyl-1H-pyrazol-4-yl)pyridin-4-yloxy)phenyl)benzofuran-5-carboxamide]	> 10 µM	> 10 µM	> 10 µM
Cn1cc(-c2cc(Oc3cccc(NC(=O)c4ccc5c(c4)C(=O)OC5=O)c3)ccn2)cn1 [Example 63, N-(3-(2-(1-Methyl-1H-pyrazol-4-yl)pyridin-4-yloxy)phenyl)-1,3-dioxo-1,3-dihydroisobenzofuran-5-carboxamide]	> 10 µM	≤ 10 µM	≤ 10 µM
Cn1cc(-c2cc(Oc3cccc(NC(=O)c4ccccc4-n4cccc4)c3)ccn2)cn1 [Example 57, N-(3-(2-(1-Methyl-1H-pyrazol-4-yl)pyridin-4-yloxy)phenyl)-2-(1H-pyrrol-1-yl)benzamide]	≤ 10 µM	≤ 10 µM	≤ 10 µM
Cn1cc(-c2cc(Oc3cccc(NC(=O)c4cccc5c4OCO5)c3)ccn2)cn1 [Example 29, N-(3-(2-(1-Methyl-1H-pyrazol-4-yl)pyridin-4-yloxy)phenyl)benzo[d][1,3]dioxole-4-carboxamide]	> 10 µM	≤ 10 µM	> 10 µM
Cn1cc(-c2cc(Oc3cccc(NC(=O)c4cccc(-c5ccccc5)c4)c3)ccn2)cn1 [Example 31, N-(3-(2-(1-Methyl-1H-pyrazol-4-yl)pyridin-4-yloxy)phenyl)biphenyl-3-carboxamide]	> 10 µM	> 10 µM	> 10 µM
CCCCOc1ccc(C(=O)Nc2cccc(Oc3ccnc(-c4cnn(C)c4)c3)c2)cc1 [Example 76, 4-Butoxy-N-(3-(2-(1-methyl-1H-pyrazol-4-yl)pyridin-4-yloxy)phenyl)benzamide]	≤ 10 µM	≤ 10 µM	> 10 µM
CCOc1cccc(C(=O)Nc2cccc(Oc3ccnc(-c4cnn(C)c4)c3)c2)c1 [Example 72, 3-Ethoxy-N-(3-(2-(1-methyl-1H-pyrazol-4-yl)pyridin-4-yloxy)phenyl)benzamide]	≤ 10 µM	≤ 10 µM	≤ 10 µM
CCOc1cc(C(=O)Nc2cccc(Oc3ccnc(-c4nnco4)c3)c2)cc(OCC)c1OCC [Example 2, N-(3-(2-(1,3,4-Oxadiazol-2-yl)pyridin-4-yloxy)phenyl)-3,4,5-triethoxybenzamide]	≤ 10 µM	> 10 µM	> 10 µM
Cn1cc(-c2cc(Oc3cccc(NC(=O)c4cccc(C#N)c4)c3)ccn2)cn1 [Example 46, 3-Cyano-N-(3-(2-(1-methyl-1H-pyrazol-4-yl)pyridin-4-yloxy)phenyl)benzamide]	> 10 µM	≤ 10 µM	> 10 µM
Cn1cc(-c2cc(Oc3cccc(NC(=O)c4ccc5c(c4)CCO5)c3)ccn2)cn1 [Example 67, N-(3-(2-(1-Methyl-1H-pyrazol-4-yl)pyridin-4-yloxy)phenyl)-2,3-dihydrobenzofuran-5-carboxamide]	> 10 µM	> 10 µM	> 10 µM
